Results on 3 compounds are retold here after patent US20090269351A1, “METHOD OF DIAGNOSING AND TREATING GLIOMA” (Genentech, Inc., priority 2006, published 2009).

One test has as its system tumor. Particulars: nude mouse model, Teicher et al. 2002; cited from earlier work.
The next test deals with GBM-derived neurospheres. Nature of the test: Neurosphere growth with growth factors. The format is cell-based, human. As to conditions: for neurosphere growth: maximal concentration of 20 ng/ml. An excerpt: Previously described GBM cell lines were used for the instant in vitro studies (Hartman et al., Internat. J. One. 15: 975-982 (1999)). To create neurosphere cultures, two cell lines (G63 and G69) were sorted using a CD133 cell isolation kit (Miltenyi Biotech) according to manufacturer's instructions, and maintained in culture as described for primary GBM specimens (Singh et al., Nature 432: 396-401 (2004)). All neurosphere cultures were maintained in Neurobasal medium (Invitrogen) with N2 supplement (Invitrogen) and NSF1 (Cambrex). For growth studies, both EGF and IGF2 were added at a concentration of 20 ng/ml. Neurospheres of primary GBM were obtained as unsorted dissociate of primary tumor (from Drs. M. Westphal and K. Lamszuz, Univ. Hamburg), expanded and maintained under the same conditions described for cel line-derived neurospheres. Neurosphere assays were performed in triplicate.
When IGF2-dependent neurospheres were disassociated and subjected to a proliferation assay using increasing concentrations of EGF or IGF2, both growth factors induced rapid growth. The growth rate based on growth factor dosage produced an identical growth curve for each growth factor (FIG. 3B).

Take `Cl.Cn1cc(C2=C(c3cn(C4CCN(Cc5ccccn5)CC4)c4ccccc34)C(=O)NC2=O)c2ccccc21` [317615-HCL]: the anti-tumor effect entry with tumor is “anti-tumor effect”.

For “EGF: growth factor added to neurosphere cultures (NSDSECPLSHDGYCLHDGVCMYIEALDKYACNCVVGYIGERCQYRDLKWWELR; Epidermal growth factor; UniProt P01133 971-1023, looked up)”, in the test with GBM-derived neurospheres, the neurosphere growth result is listed as “proliferated rapidly”.

For “IGF2: Recombinant IGF2 (R&D Systems, 292-G2), growth factor”, the neurosphere growth result in the test on GBM-derived neurospheres is given as “proliferated rapidly”. Further, the “proliferative response of neurospheres compared with EGF” value in the test with GBM-derived neurospheres (neurosphere system) was “indistinguishable from the response to EGF”.
